Here are results for one compound from patent publication US10722586B2, “Filmogenic compositions for topical anaesthetic bioadhesives—tabs, for controlled release of active principles and topical anaesthetic bioadhesives” (UNIVERSIDADE FEDERAL DE PELOTAS, priority 2014, dated 2020).

The data set deals with cell line of mouse fibroblasts (NIH/3T3). The experiment in a line: Cytotoxicity test (MTT, ISO 10993) on NIH/3T3 fibroblasts. The data set is classed as cell-based. The settings on record: absorbance at 540 nm, mean (±SD). As to the method: The cytotoxicity of the products of the invention is evaluated with the cell line of mouse fibroblasts (NIH/3T3).
The test is performed according to ISO 10993 (2009). The cell suspension is plated at a concentration of 2×10^4 cells per well and delivered into a cell culture dish of 96 wells. Each well receives 200 μl DMEM (Dulbecco's Modified Eagle Medium) supplemented with 10% Fetal Bovine Serum. The plate is then incubated at 37° C. in an atmosphere containing 5% CO2 for 24 hours. In control wells, 200 μl DMEM (Dulbecco's Modified Eagle Medium) is supplemented with fetal bovine serum 10%. After removal of the test extracts, 200 μl PBS (phosphate buffered saline) and 20 μl of MTT (tetrazolium salt [3-(4,5-dimetltiazol-2-yl)-2,5-diphenyltetrazolium bromide] are added to each well. The plate is incubated in a room without light for 24 hours at 37° C. After that, MTT is aspirated and 200 μl dimethylsulfoxide (DMSO) is added to each well. Thereafter, absorbance at 540 nm is measured using a spectrophotometer and the results were analyzed statistically.
The data are tabulated and submitted to Kruskal-Wallis nonparametric statistical analysis and Tukey's complementary test (p<0.05).
The results of cytotoxicity testing are illustrated in FIG. 10.

`CCOC(=O)c1ccc(N)cc1` [Example P20, benzocaine]: the “ABSORBANCE (540 nm)” value is 0.511 (±0.032)^A.
